From patent publication US8394814B2, “Method of purifying crude noscapine” (priority 2008, dated 2013)
Where two headings read alike, the source gives them in different places.

Tests used:
[1] = type: physicochemical
Experimental: To characterize the solubility of noscapine in acetonitrile/water systems, the following experiment was conducted. […] The results of the solubility measurements are summarized in Table 3 and are summarized in a graph in FIG. 8.

[2] = type: physicochemical; details: for Solubility: neutral pH
Experimental: To determine the solubility of noscapine in a variety of different solvents at neutral pH, the following experiment was conducted. Noscapine solubility was determined at ambient temperature (22° C.-23° C.) and at 50° C. by dissolving noscapine and noting the amount dissolved prior to saturation for the following solvents: acetone, acetonitrile, ethanol, isopropanol, methanol, pentanol, toluene, and water.

[3] = type: physicochemical; details: for Solubility: room temperature; for Reduction of the solubility of noscapine by adding an equal amount of water: Table 1 compared with Table 2
Experimental: Noscapine solubility was also determined at room temperature for the following solvent mixtures, mixed in a roughly 1:1 ratio by weight: acetone:water, acetonitrile:water, chloroform:ethanol, toluene:ethanol. Solubilities were determined using methods similar to those described above, and the measured solubilities are summarized in Table 2.

## COc1ccc2c(c1OC)C(=O)O[C@@H]2[C@H]1c2c(cc3c(c2OC)OCO3)CCN1C [noscapine]
[1]; 0% acetonitrile by weight in water, 50° C.
  Solubility: 0.2 mg noscapine per gram of solve
[1]; 0% acetonitrile by weight in water, 70° C.
  Solubility: 0.2 mg noscapine per gram of solve
[1]; 20% acetonitrile by weight in water, 50° C.
  Solubility: 0.8 mg noscapine per gram of solve
[1]; 20% acetonitrile by weight in water, 70° C.
  Solubility: 1.4 mg noscapine per gram of solve
[1]; 40% acetonitrile by weight in water, 50° C.
  Solubility: 8.1 mg noscapine per gram of solve
[1]; 40% acetonitrile by weight in water, 70° C.
  Solubility: 6.7 mg noscapine per gram of solve
[1]; 60% acetonitrile by weight in water, 50° C.
  Solubility: 32.6 mg noscapine per gram of solve
[1]; 60% acetonitrile by weight in water, 70° C.
  Solubility: 46.3 mg noscapine per gram of solve
[1]; 80% acetonitrile by weight in water, 50° C.
  Solubility: 82.8 mg noscapine per gram of solve
[1]; 80% acetonitrile by weight in water, 70° C.
  Solubility: 181.9 mg noscapine per gram of solve
[1]; 100% acetonitrile by weight, 50° C.
  Solubility: 131.0 mg noscapine per gram of solve
[1]; 100% acetonitrile by weight, 70° C.
  Solubility: 226.5 mg noscapine per gram of solve
[1]; acetonitrile, temperature increased from 22° C. to 50° C.
  Change of solubility in acetonitrile with temperature: more than doubles
[1]; between 0° C. and 70° C., acetonitrile concentrations of about 50% or above
  Increase of solubility in the acetonitrile/water mixture: up to 10 fold
[1]; solvent temperature 0° C.
  Ratio of the solubility in pure acetonitrile to the solubility in pure water: about 78
[1]; solvent temperature 70° C.
  Ratio of the solubility in pure acetonitrile to the solubility in pure water: about 647
[2]; Acetone, 23° C.
  Solubility: 68.56 mg of noscapine/g of solvent
[2]; Acetone, 50° C.
  Solubility: 145.98 mg of noscapine/g of solvent
[2]; Acetonitrile, 23° C.
  Solubility: 52.33 mg of noscapine/g of solvent
[2]; Acetonitrile, 50° C.
  Solubility: 151.21 mg of noscapine/g of solvent
[2]; Chloroform, 23° C.
  Solubility: 504.11 mg of noscapine/g of solvent
[2]; Ethanol, 50° C.
  Solubility: 5.90 mg of noscapine/g of solvent
[2]; Isopropanol, 50° C.
  Solubility: 12.99 mg of noscapine/g of solvent
[2]; Methanol, 50° C.
  Solubility: 1.81 mg of noscapine/g of solvent
[2]; Pentanol, 50° C.
  Solubility: 12.29 mg of noscapine/g of solvent
[2]; Toluene, 23° C.
  Solubility: 40.65 mg of noscapine/g of solvent
[2]; Toluene, 50° C.
  Solubility: 59.99 mg of noscapine/g of solvent
[2]; Water, 50° C.
  Solubility: 0.82 mg of noscapine/g of solvent
[2]; chloroform
  Solubility in words: highly soluble
[2]; water
  Solubility in words: nearly insoluble
[3]; Acetone 49.4% / Water 50.6% by weight
  Solubility: 3.21 mg noscapine/g of solvent
[3]; Acetonitrile 48.6% / Water 51.4% by weight
  Solubility: 1.06 mg noscapine/g of solvent
[3]; Chloroform 50.0% / Ethanol 50.0% by weight
  Solubility: 73.34 mg noscapine/g of solvent
[3]; Toluene 51.0% / Ethanol 49.0% by weight
  Solubility: 37.21 mg noscapine/g of solvent
[3]; second solvent of 'acetone and water' as printed
  Reduction of the solubility of noscapine by adding an equal amount of water: about 98%
[3]; solvent acetone
  Reduction of the solubility of noscapine by adding an equal amount of water: about 95%
